Measured values as given in patent US8268635B2, “Methods of identifying agents that selectively activate p38 and/or NKkB signaling” (priority 2006, dated 2012).
Where no end group is shown, it is not given here.

Key:
NFκB = NFκB pathway activation in human neutrophils (nuclear translocation of NFκB); type: cell-based
Method: After cell lysis, nuclear fractions were prepared, nuclear proteins separated by SDS page (12% gel), transferred to nitrocellulose and probed with an anti NFκB p65 antibody (Santa Cruz).
Western blot analysis was conducted as described previously (Hii, C. S., Huang, Z. H., Bilney, A., Costabile, M., Murray, A. W., Rathjen, D. A., Der, C. J., and Ferrante, A. (1998) J. Biol. Chem. 273: 19277-19282). Briefly, equal amounts of denatured protein from each lysate were separated by 12% SDS polyacrylamide gel electrophoresis (PAGE). The proteins were electrophoretically transferred to nitrocellulose membranes (Schleicher and Schuell, Keene, N. H., USA)(3 h at 40V). […] Immune complexes were visualised by enhanced chemiluminescence (Hii, C. S., Huang, Z. H., Bilney, A., Costabile, M., Murray, A. W., Rathjen, D. A., Der, C. J., and Ferrante, A. (1998) J. Biol. Chem. 273: 19277-19282).
This pathway, akin to the p38 pathway, is dependent on TRAF-2 and RIP (Kyriakis, J. M., and Auruch, J. (2001) Physiol Rev. 81: 807-869). We measured the nuclear translocation of NFκB as an indicator of the activation of this pathway.

[1] = system: mutant receptor peptide M4; assay: Binding of biotinylated TNF70-80 to mutant receptor peptide M4; parameters: species or system human; settings: 20 μM biotinylated TNF70-80, 18 hrs at 37° C.
Method: (§1) 100 μl of 0.7 mM solution of M4 or 1% BSA in PBS for control was coated on plates overnight for 24 hrs at 37° C. Plates were blocked for 6 hrs at 37° C. with 3% BSA in PBS. 100 μl of 20 μM of B-TNF70-80 was added to each well and allowed to incubate for 18 hrs at 37° C. Streptavidin-horseradish peroxidase and TMB H2O2 was added and bound product was detected by measuring absorbance at 450 nm.
as §1, with “Streptvadin-horseradish” for “Streptavidin-horseradish”

p38 = p38 activity in HEK293T cells; type: cell-based, human
Method: HEK 293T cells were stably transfected with wild-type TRAF2, a dominant-negative TRAF2 (ΔTRAF2) or an empty vector. TNF70-80 (10 μM) was added and the cells were incubated for 5 min. at 37° C., lysed and p38 immunoprecipitated. Kinase activity was assayed using myelin basic protein as a substrate. The data (representative digital radiogram and profile of phosphorylated MBP) shown are representative of 2 experiments.
HEK 293T cells were obtained from the American Type Culture Collection and maintained in DMEM, supplemented with 10% fetal calf serum. Cells, stably transfected with pRK5-TRAF2-FLAG, pRK5-TRAF287-501-FLAG (Dr. V. Dixit, Genentech Inc., South San Francisco) or an empty plasmid using LipofectAMINE 2000, were obtained from Dr P Xia, Hanson Institute, Adelaide, Australia) (Xia, P., Wang, L., Moretti, P. A., Albanese, N., Chai, F., Pitson, S. M., D'Andrea, R. J., Gamble, J. R., and Vadas, M. A. (2002) J. Biol. Chem. 277: 7996-8003).
Lysates containing equal amounts of protein (0.5-1 mg) were precleared with protein A sepharose (4° C.) before being incubated with anti-KHS, anti-p38, anti-ASK-1 or anti-ERK2 antibody (3 μg/sample). After mixing for 2 h (4° C.), the immune complexes were precipitated by the addition of protein A sepharose. The immunoprecipitates were collected by centrifugation (16,000 g×15s) and washed once with buffer A (4° C.), once with buffer B (10 mM Tris/HCl, pH 7.6, 100 mM NaCl, 1 mM EDTA and 100 μM […] and once with assay buffer (Hii, C. S., Huang, Z. H., Bilney, A., Costabile, M., Murray, A. W., Rathjen, D. A., Der, C. J., and Ferrante, A. (1998) J. Biol. Chem. 273: 19277-19282).
KHS (hereon referred to as “GCKR”) activity was assayed as described previously using myelin basic protein as a substrate (Shi, C. S., Leonardi, A., Kyriakis, J., Siebenlist, U., and Kerhl, J. H. (1999) J. Immunol. 163: 3279-3285). ASK-1 activation was determined in immunoprecipitates of ASK-1 by autophosphorylation (Kyriakis, J. M., and Auruch, J. (2001) Physiol. Rev. 81: 807-869). p38 and ERK activities were determined as described using myelin basic protein as a substrate (Hii, C. S., Huang, Z. H., Bilney, A., Costabile, M., Murray, A. W., Rathjen, D. A., Der, C. J., and Ferrante, A. (1998) J. Biol. Chem. 273: 19277-19282). […] A solid phase assay using glutathione-S-transferase (GST)-conjugated-jun (1-79) was employed to assay JNK activity (Hii, C. S., Huang, Z. H., Bilney, A., Costabile, M., Murray, A. W., Rathjen, D. A., Der, C. J., and Ferrante, A. (1998) J. Biol. Chem. 273: 19277-19282). Phosphorylated ASK-1, myelin basic protein and GST-jun (1-79) were fractionated on 8, 16 and 12% SDS polyacrylamide gels, respectively, and the bands were detected and radioactivity determined using an Instant Imager (Packard Instruments, Canberra, Australia). […]

## PSTHVLITHTI-OH [TNF70-80]
NFκB; TNF70-80 10 μM, 30 min or 1 h
  nuclear translocation of NFκB in neutrophils: caused the translocation of NFκB to the nucleus
NFκB; data not shown
  degradation of IκB: caused the degradation of IκB
[1]
  binding to mutant receptor peptide M4 (truncated receptor): binds to the truncated receptor
p38
  activity of p38 in HEK293T cells: able to stimulate the activity of p38
p38; TNF70-80 10 μM, 5 min
  p38 activation in HEK293T cells expressing dominant-negative ΔTRAF2: substantial attenuation of this response
  p38 activation in HEK293T cells over expressing TRAF2 compared to empty plasmid: enhanced the activation of p38 by TNF70-80
p38; treatment for 5 min, p<0.05, n=3
  increase of p38 activity over control in HEK293T cells: 243+27 % over control
